From patent US20140100290A1, “Method of treating a prostate condition” (priority 2012, published 2014)

Experiments:
Format in all cases: cell-based, Human
[1] = test system: LNCaP cells; assay: Morphological analysis of LNCaP cells; conditions: 10 μM and 1000 μM, 48 hours, dose-dependent
Method: (§1) Human metastatic prostate cancer cells, LNCaP, were obtained from ATCC (Manassas, Va., USA). Cells were grown in RPMI-1640 medium supplemented with 2mM glutamine, 10% FBS, 100 U/mL penicillin, and 100 μg/mL streptomycin. LNCaP cells were maintained in a humidified atmosphere of 5% CO2 at 37° C. in T-75 flasks and were subcultured when confluent. Experiments were conducted using cells with passage numbers ranging from 5-20.
Prominent features of morphological changes occurring in a cell, such as cell shrinkage, rounding of cells, membrane blebbing, and formation of apoptotic bodies indicate induction of apoptosis or programmed cell death.
In order to identify the morphological changes in LNCaP cells after treatment with carvacrol, 2×10^6 cells/well were seeded in flat-bottom, 6-well microtiter plates, allowed to grow for 24 hours, treated with 10 μM and 1000 μM of carvacrol, and incubated for a further 48 hours at 37° C. Post incubation, cells were washed twice with PBS, and microscopic photographs of morphological changes of the cells were captured using a fluorescent microscope, Axiovert 200M (Carl Zeiss MicroImaging Inc, NY, USA). 1.15% EtOH was used in solvent control.

[2] = test system: PARP cleavage in LNCaP cells; assay: Western blot analysis of PARP cleavage in LNCaP cells; conditions: 48 h treatment
Method: as §1
(§2) Western blotting is a widely used analytical technique for detection of specific proteins separated from one another, according to their size, by gel electrophoresis. Application of an electric current induces proteins on the gel to move on to the membrane (nitrocellulose or PVDF) placed next to it. Proteins on the gel get transferred on to the membrane which is subsequently stained with the antibody. Once detected, the target protein will be visualized as a band on a blotting membrane, X-ray film, or an imaging system. […]
(§3) After maintaining constant agitation at 4° C. for 30 minutes, lysates were collected in microcentrifuge tubes and centrifuged at 12,000 rpm at 4° C. for 20 minutes. […] Protein concentration was determined using the Pierce® BCA protein assay kit. […] Western blot images are representative of at least 3 independent experiments, while quantification data represent mean±S.E.M. of n>3 experiments.

[3] = test system: PC-3 cells; assay: Phosphatidylserine externalization by fluorescence microscopy (PSVue 480) in PC-3 cells; conditions: 10 μM and 1000 μM, 48 hours, dose-dependent
Method: Cell Line and Culture Conditions • Human metastatic, androgen insensitive prostate cancer cells, PC-3, were obtained from ATCC (Manassas, Va., USA). Cells were grown in F-12K medium supplemented with 2 mM glutamine, 10% FBS, 100 U/mL penicillin, and 100 μg/mL streptomycin. PC-3 cells were maintained in a humidified atmosphere of 5% CO2 at 37° C. in T-75 flasks and were subcultured when confluent.
One of the earliest events to occur in apoptosis or programmed cell death is externalization of phosphatidylserine (PS), a membrane phospholipid restricted to the inner leaflet of the lipid bilayer. Redistribution of PS from inner leaflet of plasma membrane lipid bilayer to the outer leaflet occurs in cells undergoing apoptosis. The PSVue™ 480 reagent kit was used to perform the phosphatidylserine (PS) externalization assay. The principle behind this assay involves a strong binding of PSVue™ 480 (fluorescent probe) to the anionic PS residues exposed on the surface of apoptotic cells by its Zn (II)-dipicolylamine (Zn-DPA) functionality, making it a useful apoptotic sensor.
To detect PS externalization, PC-3 cells were seeded at a density of 0.5×10^6 cells/well in flat-bottom, 6-well microtiter plates and were allowed to incubate for 24 h. After 24 h of incubation at 37° C., cells were treated with 10 μM and 1000 μM of carvacrol for 48 h. […]

[4] = test system: cytochrome c release in LNCaP cells; assay: Western blot analysis of cytochrome c release in LNCaP cells; conditions: 10 μM and 1000 μM, 48 h
Method: as §1, §2, §3

## Cc1ccc(C(C)C)cc1O [Carvacrol]
[1]
  morphological changes (features of apoptosis): typical features of apoptosis like rounding of cells, membrane blebbing, cell shrinkage and formation of apoptotic bodies were observed
[2]
  cleavage of PARP (Western blot): demonstrated cleavage of PARP
[3]
  externalization of phosphatidylserine residues (PSVue 480 positive cells): showed externalization of phosphatidylserine residues
[4]
  cytochrome c release (Western blot, densitometry vs solvent control): dose-dependent increase in cytochrome c release
